The values that follow are results of earlier work, collected in patent US20240066028A1, “COMPOSITIONS FOR IMPROVED DELIVERY OF CGRP INHIBITORS” (Pfizer Ireland Pharmaceuticals, priority 2020, published 2024).

For the data set the following is noted: FAO/WHO report; cited from earlier work.

As to sucrose dodecanoate, the NOAEL is 20-30 grams/kilogram/day.
